One assay relates to HIV-1IIIB. In words: PBMC cell-based anti-HIV assay. The conditions noted are these: PBMCs. As to the method:
(§1) For the standard PBMC assay, PHA-P stimulated cells from at least two normal donors were pooled, diluted in fresh medium to a final concentration of 1 x 10^6 cells/mL, and plated in the interior wells of a 96 well round bottom microplate at 50 µL/well (5 x 10^4 cells/well). Test drug dilutions were prepared at a 2X concentration in microfuge tubes and 100 µL of each concentration was placed in appropriate wells in a standard format. A predetermined dilution of virus stock was placed in each test well (50 µL, final MOI ≅ 0.1). Wells with cells and virus alone were used for virus control. Separate plates were prepared identically without virus for drug cytotoxicity studies using an XTT assay system. The PBMC cultures were maintained for seven days following infection, at which time cell-free supernatant samples were collected and assayed for reverse transcriptase activity as described below.
Reverse Transcriptase Activity Assay: A microtiter based reverse transcriptase (RT) reaction was utilized as described by Buckheit et al., (1991), AIDS Research and Human Retroviruses, 7:295-302. Tritiated thymidine triphosphate (^3H-TTP) was suspended in distilled H2O at 5 Ci/mL. […] Opti-Fluor-O (Packard) was added to each sample and incorporated radioactivity was quantified utilizing a Wallac 1450 MicroBeta Plus liquid scintillation counter. […]

Another assay deals with HIV-1ROJO. In words: Reverse transcriptase activity assay in infected PBMCs. Format: cell-based. Particulars: PBMCs.
Excerpt: PBMCs were isolated from fresh human blood obtained commercially from the American Red Cross (Baltimore, Maryland). CEM-SS cells were obtained from the NIH AIDS reagent program. The low passage, lymphotropic clinical isolate ROJO was obtained from a pediatric patient attending the AIDS Clinic at the University of Alabama at Birmingham. Phytohemagglutinin (PHA-P) was obtained from Sigma Chemical Co. (St. Louis, MO) and recombinant IL-2 was obtained from Amgen (San Francisco, CA). As a positive control for antiviral assays, AZT was obtained from the NIH AIDS Reagent Program. HIV-1RF also was obtained from the NIH AIDS reagent program. Tritiated thymidine triphosphate was obtained from New England Nuclear (Boston, MA). Each plate in each experiment contained cell control wells (cells only), virus control wells (cells plus virus), drug toxicity control wells (cells plus drug only), drug colorimetric control wells (drug only) as well as experimental wells (drug plus cells plus virus).
Fresh human PBMCs were isolated from voluntary Red Cross donors, seronegative for HIV and HBV. Leukophoresed blood was diluted 1:1 with Dulbecco's PBS, layered over 14 mL of Ficoll-Hypaque density gradient in a 50mL centrifuge and then centrifuged for 30 minutes at 600 x g. Banded PBMCs were gently aspirated from the resulting interface and subsequently washed twice with PBS by low speed centrifugation. […] PBMCs were maintained in this medium at a concentration of 1-2 x 10^6 cells/mL with bi-weekly medium changes until used in the assay.
as §1
Virus Preparation: Pre-tittered aliquots of HIV-1ROJO and HIV-1RF were removed from the freezer (-80°C) and thawed to room temperature in a biological safety cabinet. The virus was resuspended and diluted into tissue culture medium such that the amount of virus added to each well in a volume of 50 µL will be the amount determined to give complete cell killing at 6 days post-infection.
Reverse Transcriptase Activity Assay: A microtiter based reverse transcriptase (RT) reaction was utilized as described by Buckheit et al., (1991), AIDS Research and Human Retroviruses, 7:295-302. Tritiated thymidine triphosphate (^3H-TTP) was suspended in distilled H2O at 5 Ci/mL. Poly rA and oligo dT were prepared as a stock solution which was kept at -20°C. RT reaction buffer was prepared fresh on a daily basis and contained 125 µL 1M EGTA, 125 µL dH2O, 110 µL 10% SDS, 50 µL 1M Tris (pH 7.4), 50 µL 1M DTT, and 40 µL 1M MgCl2. These three solutions were mixed together in a ratio of 2 parts ^3H-TTP, 1 part poly rA:oligo dT, and 1 part reaction buffer. Ten microliters of this reaction mixture were placed in a round bottom microtiter plate and 15 µL of virus containing supernatant were added and mixed. The plate was incubated at 37°C in a water bath with a solid support to prevent submersion of the plate and incubated for 60 minutes.

The text below walks through data of patent EP1143981B1, “USE OF N-GLYCOLNEURAMINIC ACID AND ITS DERIVATIVES FOR THE MANUFACTURE OF A MEDICAMENT FOR THE TREATMENT OF HIV INFECTIONS” (Glukor, Inc., priority 1998, dated 2000).

For orientation: IC50 means the point on the concentration scale where inhibition reaches its midpoint. Consider `Cc1cn([C@H]2C[C@H](N=[N+]=[N-])[C@@H](CO)O2)c(=O)[nH]c1=O` [AZT, reference compound], for which the IC50 in the assay on HIV-1IIIB came to 2 nM; with HIV-1ROJO (2hr pretreatment) it was 4 nM; in the assay with HIV-1ROJO (without pretreatment) it was 8 nM.
